Data published in PMC2921341, “Interaction of Serum- and Glucocorticoid Regulated Kinase 1 (SGK1) with the WW-Domains of Nedd4-2 Is Required for Epithelial Sodium Channel Regulation” (PLoS ONE, 2010).

Test system: SGK
Experiment: GST pulldown of SGK from COS7 lysate with WW-domain GST fusion proteins
Type: binding, human
Settings: GST fusion on glutathione-Sepharose, COS7 lysate with SGK-FLAG or ΔN60SGK-HA, 3 h at 4°C, western blot, n = 7
Method: In order to better understand the molecular nature of the interaction between Nedd4-2 and SGK, in vitro GST pulldown studies were performed. […] Individual WW-domains of Nedd4-2 or Nedd4, or combinations of Nedd4-2 WW-domains, were expressed as GST fusion proteins and purified on glutathione-Sepharose beads. Lysates of COS7 cells expressing SGK or ΔN60-SGK (both SGK constructs gave the same results) were incubated with the WW-domain fusion proteins or GST alone. Bound SGK was detected by western blotting with anti-FLAG/HA.
pGEX-KG containing the cDNA of WW-domains of Nedd4 and Nedd4-2 or the empty vector were transformed into Escherichia coli strain BL21, and expression of the WW-domains-GST fusion protein or GST alone was induced with 0.5 µM isopropyl-D-1-thiogalactopyranoside for 3 h at 37°C. Bacteria were lysed using BugBuster (Novagen, Merck KGaA, Darmstadt, Germany), and the GST fusion proteins were purified on glutathione-Sepharose beads (GE Healthcare, Little Chalfont, Bucks, U.K.). COS7 cells were transiently transfected with pMT3 containing SGK/SGKS422D-FLAG or ΔN60SGK-HA. […] The glutathione-Sepharose beads, along with the fusion proteins and any binding proteins, were collected by centrifugation (1 min, 16,000 g), washed extensively in T-TBS and analyzed by SDS-PAGE and Western blotting using anti-FLAG antibody. Resulting X-ray films were analyzed densitometrically.

| binding to SGK in GST pulldown (in words) | Substance |
| --- | --- |
| interact with SGK | Nedd4 WW1: WW-domain 1 of Nedd4, GST fusion (SPLPPGWEERQDILGRTYYVNHESRRTQWKRPTP; left off: GST, end not stated, kept) |
| interact with SGK | Nedd4 WW3: WW-domain 3 of Nedd4 (GFLPKGWEVRHAPNGRPFFIDHNTKTTTWEDPRL; left off: GST, end not stated, cleaved) |
